Series [1] deals with full length human purified recombinant pp60^c-src (Homo sapiens, UniProt P12931). As to the kind of experiment: Inhibition of isolated Src (Lai et al. 1998 assay, intracellular-mimetic conditions). The series is classed as biochemical. The following applies: column head: Src at 100 μM; read-out: Src IC50.
Method: Subsequent to synthesis, several of the above compounds were tested for inhibition of the growth of human lung cancer cell line H460 and inhibition of isolated Src.
The conditions of series [2]: mouse, in vivo, ip.
Method: These compounds were administered to SCID mice by intraperitoneal administration in tween80:EtOH.
The test system of series [3] is human lung cancer cell line H460. As to the kind of experiment: Inhibition of growth of human lung cancer cell line H460. The series is classed as cell-based. The following applies: NCI-H460, 72 hours, total protein/well. The source says: The results are in Table 2, below.
In series [4] the target is p56 lck (Homo sapiens, UniProt P06239). Conditions: analyzed with the tyrosine kinase p56^lck; cited from earlier work.
Series [5] deals with ovarian tumor cells (tumor N015) and abdominal carcinoma from patients. As to the kind of experiment: Patient tumor cell culture, comparison with cancer drugs. Type of series: cell-based, human. The source says:
The initial non-peptide Src inhibitors have also shown very encouraging results in four different series of cell culture assays. 1) In the NIH 60-tumor cell panel assay, broad activity (as one would expect for a Src inhibitor) was seen against the tumor cell lines, including the prostate lines. […] 3) The Src inhibitors were compared to the cancer drugs etoposide, taxol, doxorubicin, and cisplatin in ovarian tumors from three different patients and an abdominal carcinoma from another patient. […] 5) Two of the Src inhibitors were also tested for inhibition of ts v-Src stimulated LA25 cell growth. […] 6) Two of the Src inhibitors were also tested for inhibition of normal rat kidney cell growth.

Data on four compounds can be found in patent publication US7427608B2, “Protection against and treatment of hearing loss” (The Research Foundation of State University of New York, priority 2001, dated 2008).

Each structure is given as a SMILES string.

Sequence of full length human purified recombinant pp60^c-src (P12931 whole entry): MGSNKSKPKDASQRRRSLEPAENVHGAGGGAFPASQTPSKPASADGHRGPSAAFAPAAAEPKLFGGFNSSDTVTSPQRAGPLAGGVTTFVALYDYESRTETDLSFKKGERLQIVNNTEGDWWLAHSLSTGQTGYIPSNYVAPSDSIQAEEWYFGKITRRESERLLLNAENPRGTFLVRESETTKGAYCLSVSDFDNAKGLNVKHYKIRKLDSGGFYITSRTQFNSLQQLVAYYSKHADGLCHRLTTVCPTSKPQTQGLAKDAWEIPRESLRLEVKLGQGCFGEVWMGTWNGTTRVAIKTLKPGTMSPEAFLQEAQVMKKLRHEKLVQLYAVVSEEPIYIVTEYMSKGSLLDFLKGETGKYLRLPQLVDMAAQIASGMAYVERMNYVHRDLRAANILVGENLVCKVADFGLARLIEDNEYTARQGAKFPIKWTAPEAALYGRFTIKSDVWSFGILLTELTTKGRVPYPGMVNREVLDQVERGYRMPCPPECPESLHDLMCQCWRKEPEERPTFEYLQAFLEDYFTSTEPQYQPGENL
Sequence of p56 lck (P06239 whole entry, species assumed): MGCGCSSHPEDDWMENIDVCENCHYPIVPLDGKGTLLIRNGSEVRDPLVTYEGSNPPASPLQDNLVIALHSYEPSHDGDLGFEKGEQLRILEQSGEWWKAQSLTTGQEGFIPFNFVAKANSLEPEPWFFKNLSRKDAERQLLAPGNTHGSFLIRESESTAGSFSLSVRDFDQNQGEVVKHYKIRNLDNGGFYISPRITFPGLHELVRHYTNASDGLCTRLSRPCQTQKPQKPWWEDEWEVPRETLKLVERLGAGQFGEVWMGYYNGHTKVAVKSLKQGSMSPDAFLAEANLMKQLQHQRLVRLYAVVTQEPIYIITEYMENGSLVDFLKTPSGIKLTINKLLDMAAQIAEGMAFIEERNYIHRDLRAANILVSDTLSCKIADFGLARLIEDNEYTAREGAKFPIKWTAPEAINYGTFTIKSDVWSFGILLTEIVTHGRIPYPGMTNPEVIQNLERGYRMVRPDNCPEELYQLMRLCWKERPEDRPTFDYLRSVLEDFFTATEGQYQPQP

Regarding `O=C(NCc1cccc(O)c1)c1cc2cc(F)ccc2[nH]1` [Compound 1a], the IC50 came out at 40 µM in series [1] and 35 ± 0.59 µM in series [3]. Also, the “toxicity in mice (weight loss), MTD study” value in series [2] is on record as “less toxic in mice than compound 2k from Example 4”.

As to `Cc1cc(O)c2c(c1)C(=O)c1cc(O)cc(O)c1C2=O` [Emodin], in series [4], the “competition with ATP” value is “ATP-competitive”.

Consider `COc1cccc2c1C(=O)c1c(O)c3c(c(O)c1C2=O)C[C@@](O)(C(=O)CO)C[C@@H]3O[C@H]1C[C@H](N)[C@H](O)[C@H](C)O1` [doxorubicin], for which the “efficacy relative to other cancer drugs in tumor cell culture” value in series [5] is “more effective than etoposide and cisplatin”.

On to `CC(=O)O[C@H]1C(=O)[C@@]2(C)[C@H]([C@H](OC(=O)c3ccccc3)[C@]3(O)C[C@H](OC(=O)[C@H](O)[C@@H](NC(=O)c4ccccc4)c4ccccc4)C(C)=C1C3(C)C)[C@]1(OC(C)=O)CO[C@@H]1C[C@@H]2O` [taxol], for which, in series [5], the “efficacy relative to other cancer drugs in tumor cell culture” value is “more effective than etoposide and cisplatin”.
